In data set [1] the test system is tetR, luxCDABE operon under the regulation of the tetA promotor/operator. Nature of the data set: JE305K+pTetLux1 tet detection system (Klux). Format: cell-based. The text has this: In another embodiment, a tetracycline compound of the invention can be used to regulate transcription of a gene or gene product under the control of a native Tet operator and in the presence of a native TetR in a cell. In one embodiment, the invention pertains to such a cell. For example, JE305K is a strain that has disrupted acrB and waaP genes and comprises a plasmid which contains tetR, and the luxCDABE operon (from P. luminescens) under the regulation of the tetA promotor/operator.
The substituted tetracycline compounds were examined in a dose response analysis using the JE305K+pTetLux1 tet detection system. JE305K is a strain that has disrupted acrB and waaP genes. pTetLux1 is a plasmid which contains tetR, and has the luxCDABE operon (from P. luminescens) under the regulation of the tetA promotor/operator. The plasmid was obtained from the University of Turku, Finland.

For data set [2], the system named is rtTA2-MT2. Nature of the data set: rtTA-mediated gene activation, luciferase positive cell line MT2. Format: cell-based. From the text: FIGS. 2A-2D show a comparison of doxycycline and 9-t-butyl doxcycline in 34R and MT2 rtTA mutants. FIGS. 2A and 2B show the effect of doxycyline on 34R and MT2 mutants, respectively. FIGS. 2C and 2D show the effect of 9-t-butyl doxycycline on 34R and MT2 mutants, respectively.

Data set [3] concerns transactivator fusion protein. To be noted: as demonstrated in U.S. Pat. No. 5,789,156; cited from earlier work.
For data set [4] the following is noted: Mansuy and Bujard Curr. Op. Neurobiol. 10:593-96; cited from earlier work.

Turning to `CCCC#Cc1ccc(O)c2c1C[C@H]1C[C@H]3[C@H](N(C)C)C(O)=C(C(N)=O)C(=O)[C@@]3(O)C(O)=C1C2=O`, in data set [1], the “activity in the JE305K+pTetLux1 assay” value was “active”.
For the molecule 5-phenylcarbamate doxcycline, the “activation of rtTA2s-M2 compared with doxycycline” value in data set [2] was “two fold better activator”.
As to `Cc1c2c(c(O)c3c(O)cccc13)C(=O)[C@]1(O)C(=O)C(C(N)=O)=C(O)[C@@H](N(C)C)[C@@H]1C2` [anhydrotetracycline], in data set [3], the “strength as inducing agent” value was “strong inducing agents”.
For the molecule `C[C@H]1c2cccc(O)c2C(=O)C2=C(O)[C@]3(O)C(=O)C(C(N)=O)=C(O)[C@@H](N(C)C)[C@@H]3[C@@H](O)[C@@H]21` [doxycycline], the “penetration of the blood-brain barrier” value in data set [4] was “limited penetration of the blood-brain barrier”.

The values are drawn from patent US20080118979A1, “Methods of regulating expression of genes or of gene products using substituted tetracycline compounds” (Paratek Pharmaceuticals, Inc., priority 2006, published 2008).
